# According to BindingDB's records for doi:10.1021/jm960305h (National Institute of Diabetes and Digestive and Kidney …, 1997):
# Experiment: Binding affinity against sigma receptor using radioligand ([3H](+)-pentazocine) binding assay
row,Structure (SMILES),IC50
1,"c1ccc(C(OCCN2CCN(CCOC(c3ccccc3)c3ccccc3)CC2)c2ccccc2)cc1 [1,4-Bis-(2-benzhydryloxy-ethyl)-piperazine]",> 10000 nM
2,"c1ccc(CCCN2CCCN(CCOC(c3ccccc3)c3ccccc3)CC2)cc1 [1-(2-Benzhydryloxy-ethyl)-4-(3-phenyl-propyl)-[1,4]diazepane]",26 nM
3,"c1ccc(CCCN2CCCCN(CCOC(c3ccccc3)c3ccccc3)CC2)cc1 [1-(2-Benzhydryloxy-ethyl)-4-(3-phenyl-propyl)-[1,4]diazocane]",180 nM
4,c1ccc(C(OCCN2CCNCC2)c2ccccc2)cc1 [1-(2-Benzhydryloxy-ethyl)-piperazine],1480 nM
5,Fc1ccc(C(OCCN2CCNCC2)c2ccc(F)cc2)cc1 [1-{2-[Bis-(4-fluoro-phenyl)-methoxy]-ethyl}-piperazine],965 nM
6,c1ccc(CCCN2CCCCC(NCCOC(c3ccccc3)c3ccccc3)C2)cc1 (stereo unspecified) [(2-Benzhydryloxy-ethyl)-[1-(3-phenyl-propyl)-azepan-3-yl]-amine],78 nM
7,"C[C@@H]1CN(CCOC(c2ccccc2)c2ccccc2)[C@@H](C)CN1CCOC(c1ccccc1)c1ccccc1 [(2S,5R)-1,4-Bis-(2-benzhydryloxy-ethyl)-2,5-dimethyl-piperazine]",4000 nM
8,"C[C@@H]1CN(CCOC(c2ccc(F)cc2)c2ccc(F)cc2)[C@@H](C)CN1CCOC(c1ccc(F)cc1)c1ccc(F)cc1 [(2S,5R)-1,4-Bis-{2-[bis-(4-fluoro-phenyl)-methoxy]-ethyl}-2,5-dimethyl-piperazine]",3640 nM
9,"C[C@@H]1CN(CCOC(c2ccccc2)c2ccccc2)[C@@H](C)CN1 [(2S,5R)-1-(2-Benzhydryloxy-ethyl)-2,5-dimethyl-piperazine]",67 nM
10,"C[C@@H]1CN(CCOC(c2ccc(F)cc2)c2ccc(F)cc2)[C@@H](C)CN1 [(2S,5R)-1-{2-[Bis-(4-fluoro-phenyl)-methoxy]-ethyl}-2,5-dimethyl-piperazine]",65 nM
11,"C[C@@H]1CN(CCCc2ccccc2)[C@@H](C)CN1CCCc1ccccc1 [(2S,5R)-2,5-Dimethyl-1,4-bis-(3-phenyl-propyl)-piperazine]",8.5 nM
12,"NCCCCNCCOC(c1ccccc1)c1ccccc1 [N*1*-(2-Benzhydryloxy-ethyl)-butane-1,4-diamine]",> 10000 nM
13,"c1ccc(CCCNCCCCNCCOC(c2ccccc2)c2ccccc2)cc1 [N-(2-Benzhydryloxy-ethyl)-N'-(3-phenyl-propyl)-butane-1,4-diamine]",1050 nM
14,"CN(CCCc1ccccc1)CCN(C)CCOC(c1ccccc1)c1ccccc1 [N-(2-Benzhydryloxy-ethyl)-N,N'-dimethyl-N'-(3-phenyl-propyl)-ethane-1,2-diamine]",34 nM
15,"CNCCN(C)CCOC(c1ccccc1)c1ccccc1 [N-(2-Benzhydryloxy-ethyl)-N,N'-dimethyl-ethane-1,2-diamine]",231 nM
16,c1ccc(CCCNC2CCCCN(CCOC(c3ccccc3)c3ccccc3)C2)cc1 (stereo unspecified) [[1-(2-Benzhydryloxy-ethyl)-azepan-3-yl]-(3-phenyl-propyl)-amine],83 nM

# Experiment: as above
# Remark: another data set of the same source
row,IC50,Structure (SMILES)
1,0.5 nM,"c1ccc(CCCN2CCN(CCCc3ccccc3)CC2)cc1 [1,4-Bis-(3-phenyl-propyl)-piperazine]"
2,109 nM,c1ccc(CCCN2CCNCC2)cc1 [1-(3-Phenyl-propyl)-piperazine]
3,8.5 nM,"C[C@@H]1CN(CCCc2ccccc2)[C@@H](C)CN1 [(2S,5R)-2,5-Dimethyl-1-(3-phenyl-propyl)-piperazine]"

row,Structure (SMILES),IC50
1,"Fc1ccc(C(OCCN2CCN(CCOC(c3ccc(F)cc3)c3ccc(F)cc3)CC2)c2ccc(F)cc2)cc1 [1,4-Bis-{2-[bis-(4-fluoro-phenyl)-methoxy]-ethyl}-piperazine]",> 10000 nM
2,"C[C@@H]1CN(CCOC(c2ccccc2)c2ccccc2)[C@@H](C)CN1CCCc1ccccc1 [(2S,5R)-1-(2-Benzhydryloxy-ethyl)-2,5-dimethyl-4-(3-phenyl-propyl)-piperazine]",8.6 nM
